# Laboratory results published in PMC5062570 (Nature Communications, 2016).
# Several values for one entry are separate records, joined by “and”; a condition that tells them apart may be missing. Equal values may be shown once. Entries after “also recorded” stand apart in the source; their conditions may differ. Read-outs that look alike come from different tables or passages of the source.
# Key:
# [1] = molecular target: CatD (Homo sapiens, UniProt P07339); assay: CatD cellular assay (competition of PF-7802 photolabelling in live ARPE-19 cells); format: cell-based; design: host or cells: ARPE-19; details: for CatD potency increase in live cells: CatD enzyme IC50 versus CatD cellular IC50; for IC50: live ARPE-19 cells, PF-7802 photoprobe 100 nM, 30 min
# Experimental: ARPE-19 cells were plated at a density of 1.2 × 10^6 cells per well in six-well dishes 12–24 h before probe labelling. Culture media was removed completely and replaced with 1 ml of the appropriate serum-free media (no supplements) per well. Cells were then pretreated with test compounds at the indicated concentrations for 30 min (0.5% DMSO, 37 °C, 5% CO2). […] Ultraviolet irradiation was performed without culture plate lids for efficient irradiation, and samples were slowly rotated to prevent evaporation. After ultraviolet irradiation, cells were washed twice with Dulbecco's phosphate-buffered saline (DPBS), scraped into DPBS, centrifuged and stored as pellets at −80 °C.
# Cells were lysed with sonication on ice in 70 μl DPBS and protein concentrations were determined using a BCA assay (Pierce). Total protein concentrations were then normalized to 1 mg ml^−1 in 50 μl total volume before addition of 5.5 μl click chemistry mix (1 : 3 : 1 : 0.5 volume of 50 mM CuSO4 (Sigma) in H2O : 1.7 mM TBTA (Sigma) in 4:1 t-BuOH:DMSO : 50 mM TCEP (Hampton Research) in dPBS : 10 mM TAMRA-azide (Lumiprobe) in DMSO - mixed immediately before use. Reagent solutions can be premade and stored at 4 °C except for TCEP, which should be made immediately before use). […] All fluorescence gels are presented in greyscale.
# [2] = Plasma exposure (average unbound plasma concentration) in dogs; format: in vivo; details: both sexes, beagle, oral, dog, read-out: Avg Cp,u parent
# Experimental: (§1) Naive […] beagle dogs (Canis lupus familiaris, >8 months old, n=1 male and n=1 female per group) received daily oral dosing of test compounds or vehicle for 14 days at the indicated concentrations. The doses were prepared in a solution of 0.5% methylcellulose and hydroxypropyl methylcellulose acetate succinate (high fine grade) and delivered in a volume of 5 ml kg^−1 per day. Blood samples for bioanalytical analysis were collected in K2EDTA tubes via jugular vessel. Plasma was isolated after centrifugation and stored at –20 °C before analysis. Animals were killed via intravenous administration of barbiturate followed by exsanguination ∼3 h after the final dose on day 15.
# Plasma samples were analysed after protein precipitation by treating 20 μl of sample matrix with 200 μl of acetonitrile containing internal standard. All samples were centrifuged at 3,000 r.p.m. for 5 min. Then 100 μl of supernatant was transferred to a clean plate and evaporated to dryness under N2. Samples were reconstituted in 200 μl of 80:20 (v:v) acetonitrile:water. Samples were analysed on Waters Acquity UPLC connected to AB Sciex API5500 QTrap MS/MS.
# Plasma protein binding was determined in the Rapid Equilibrium Device (RED, Thermo Scientific). […] Samples were protein-precipitated with acetonitrile containing internal standard, and the resulting supernatant was analysed by LC-MS/MS.
# [3] = test system: retinal pigment epithelium (RPE); assay: Exploratory toxicology, ocular toxicity by retinal histology in dogs; format: in vivo; details: 14 days; for Female ocular toxicity incidence (positive or negative animals / total evaluated) / Female ocular toxicity outcome / Male ocular toxicity incidence (positive or negative animals / total evaluated) / Male ocular toxicity outcome: dog; for Retinal finding by fluorescence microscopy: dogs
# Experimental: as §1
# [4] = test system: CatE; details: purified aspartyl proteases; not previously disclosed
# [5] = test system: CatD; details: cited from earlier work
# [6] = molecular target: T1, purified CatD (Homo sapiens, UniProt P07339); assay: PF-7802 labelling of purified CatD (probe-based competition); format: binding; details: 250 nM purified human mature CatD, NaOAc pH 4.5, PF-7802 100 nM
# T1 construct: final maturation into a non-covalently associated heavy chain and light chain; purchased Sigma C8696; host or cells: human liver
# Experimental: Purified CatD (Sigma C8696, isolated from human liver) or proCatD (R&D systems 1014-AS) was reconstituted and diluted to 250 nM in NaOAc buffer (50 mM, pH 4.5, 0.0001% Tween-20). […] Samples were analysed by in-gel fluorescence scanning and western blot with an α-CatD antibody (R&D Systems AF-1014) as described above for CatD knockdown.
# [7] = test system: retinal pigment epithelium (RPE); assay: Ocular toxicity, retinal histology in wild-type and BACE1 knockout mice; details: 80 mg kg-1 daily; for WT ocular toxicity incidence (positive or negative animals / total evaluated) / WT ocular toxicity outcome: wild-type mice
# Experimental: All experiments and procedures involving animals were conducted as per the established guidelines and protocols that were reviewed and approved by the Pfizer Institutional Animal Care and Use Committee. […] Animals were housed at an Association for Assessment and Accreditation of Laboratory Animal Care International accredited facility in species-specific housing. Sample number was adequately powered for exploratory toxicology studies based on consistent internal practice. Clinically acceptable animals were selected for exploratory toxicology studies and assigned to groups using a computer-assisted randomization procedure based on body weights. For the fluorescent microscopic evaluation of the eyes, animals from the control group were initially evaluated in an unblinded fashion to provide the investigator an understanding of the baseline amount of autofluorescence typical for vehicle-treated animals in the study. A subsequent blinded evaluation of all animals in the study including controls was then performed to identify individuals that were outside the normal range established by the initial unblinded control group review.
# After fixation for a minimum of 2 days, each eye was sectioned in half along the mid-sagittal plane with one half being embedded cut side down in a paraffin wax block and the other half returned to fixative. Paraffin blocks were sectioned at 4–5 μm using a microtome and the resulting sections were placed on glass slides, stained with H&E and coverslipped.
# Chain of CatD (Homo sapiens, UniProt P07339) (P07339 169-412 limits assumed): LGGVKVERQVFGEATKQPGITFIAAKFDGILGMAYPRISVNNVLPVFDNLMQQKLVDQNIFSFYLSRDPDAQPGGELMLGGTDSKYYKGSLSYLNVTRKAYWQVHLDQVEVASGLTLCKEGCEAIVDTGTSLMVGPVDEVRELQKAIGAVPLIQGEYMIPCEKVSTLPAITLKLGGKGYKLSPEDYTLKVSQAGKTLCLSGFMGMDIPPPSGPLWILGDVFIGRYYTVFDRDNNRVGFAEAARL
# Chain of CatD (Homo sapiens, UniProt P07339) (P07339 65-162 limits assumed): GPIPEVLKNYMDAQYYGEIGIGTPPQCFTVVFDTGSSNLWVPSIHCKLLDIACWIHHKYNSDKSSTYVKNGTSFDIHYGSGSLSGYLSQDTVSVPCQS
# T1 sequence (P07339 65-162 limits assumed): as above
# T1 sequence (P07339 169-412 limits assumed): as the sequence (P07339 169-412 limits assumed) above
compound,measurement,setting,value
Cc1cc([C@H]2C[C@H]3[C@@H](CF)SC(N)=N[C@@]3(c3ccc(F)cc3F)CO2)on1 [PF-3195],CatD potency increase in live cells,[1],17 x
same,IC50,[1],540 nM
Cc1cc([C@H]2C[C@H]3[C@@H](C)SC(N)=N[C@@]3(c3ccc(F)cc3F)CO2)on1 [PF-9283],concentration at 14 days,[2]; 3 mg kg-1 once daily,32 nM
same,concentration at 14 days,[2]; 9 mg kg-1 once daily,401 nM
same,Female ocular toxicity incidence (positive or negative animals / total evaluated),[3]; 3 mg kg-1 once daily,1/1
same,Female ocular toxicity outcome,[3]; 3 mg kg-1 once daily,Neg (negative (neg) if there was no ocular abnormality observed)
same,Male ocular toxicity incidence (positive or negative animals / total evaluated),[3]; 3 mg kg-1 once daily,1/1
same,Male ocular toxicity outcome,[3]; 3 mg kg-1 once daily,Neg (negative (neg) if there was no ocular abnormality observed)
same,Female ocular toxicity incidence (positive or negative animals / total evaluated),[3]; 9 mg kg-1 once daily,1/1
same,Female ocular toxicity outcome,[3]; 9 mg kg-1 once daily,Neg (negative (neg) if there was no ocular abnormality observed)
same,Male ocular toxicity incidence (positive or negative animals / total evaluated),[3]; 9 mg kg-1 once daily,1/1
same,Male ocular toxicity outcome,[3]; 9 mg kg-1 once daily,Pos
same,Retinal finding by fluorescence microscopy,[3]; 3 mg kg-1 daily,not after 3 mg kg-1 dosing
same,Retinal finding by fluorescence microscopy,[3]; 9 mg kg-1 daily,accumulated autofluorescent
same,Fold selectivity for BACE1 over CatE,[4],320 fold
same,selectivity ratio,[5],210
same,Competition of PF-7802 labelling of purified mature CatD,[6],competed by pretreatment with PF-9283 in a concentration-dependent manner; also recorded: concentration-dependently competed
same,CatD potency difference between cell-free enzyme and cellular assays,[1],~86 fold
same,CatD potency increase in live cells,[1],86 x
same,BACE1 selectivity over CatD in cells,[1]; cellular inhibition of BACE1 cleavage of APP versus inhibition of CatD labelling by PF-7802,23 fold
same,IC50,[1],140 nM and < 300 nM
same,BACE1(-/-) ocular toxicity incidence (positive or negative animals / total evaluated),"[7]; BACE1(-/-) mice, 14 days",4/5
same,BACE1(-/-) ocular toxicity outcome,"[7]; BACE1(-/-) mice, 14 days",Pos
same,Retinal finding by fluorescence microscopy,"[7]; BACE1(-/-) mice, 14 days",accumulated autofluorescent granules were observed
same,BACE1(-/-) ocular toxicity incidence (positive or negative animals / total evaluated),"[7]; BACE1(-/-) mice, 30 days",6/6
same,BACE1(-/-) ocular toxicity outcome,"[7]; BACE1(-/-) mice, 30 days",Pos
same,WT ocular toxicity incidence (positive or negative animals / total evaluated),[7]; 2 days,5/5
same,WT ocular toxicity outcome,[7]; 2 days,Neg
same,WT ocular toxicity incidence (positive or negative animals / total evaluated),[7]; 4 days,1/5
same,WT ocular toxicity outcome,[7]; 4 days,Pos
same,WT ocular toxicity incidence (positive or negative animals / total evaluated),[7]; 7 days,6/6
same,WT ocular toxicity outcome,[7]; 7 days,Pos
same,WT ocular toxicity incidence (positive or negative animals / total evaluated),[7]; 14 days,5/5
same,WT ocular toxicity outcome,[7]; 14 days,Pos
same,WT ocular toxicity incidence (positive or negative animals / total evaluated),[7]; 30 days,6/6
same,WT ocular toxicity outcome,[7]; 30 days,Pos
